{"source": "patent US9260473B2", "about": "“Bivalent multifunctional ligands targeting Aβ oligomers as treatment for Alzheimer's disease” (Virginia Commonwealth University, priority 2010, dated 2016)", "key": {"[1]": {"test": "BBB permeability in B6C3F1 mice, brain tissue analysed by HPLC", "assay_type": "in vivo", "description": "FIG. 10. Compound 14 can cross the blood brain barrier (BBB) of B6C3F1 mice. Compound 14 (10 mg/kg) was given to B6C3F1 female mice (n=3) by i.v. administration through tail-vein. Then the animals were sacrificed at indicated time intervals and the brain tissues were collected and analyzed by HPLC using C18 column.\nAn appropriate fluorescent probe must cross the BBB and selectively bind to Aβ plaques. […] Here, we further assessed the BBB permeability of 14 using female B6C3F1 mice combined with HPLC analysis. […] The results may indicate that 14 can rapidly cross the BBB and reach the brain tissue and is metabolized in a reasonable time window (˜3 hrs) that allows clinical operation. 14 appears to violate all of the empirical rules of BBB permeability with a molecule weight >1000 Da and being more lipophilic (log P>3). However, we also realize that there are exceptions and that compounds with molecular weight more than 1000 Da can efficiently cross the BBB and reach brain tissue."}, "splenocytes": {"system": "splenocytes", "test": "Anti-CD3 antibody mediated splenocyte proliferation", "assay_type": "cell-based, B6C3F1 mice", "conditions": "10 μM", "description": "Anti-CD3 antibody mediated splenocyte proliferation. […] The splenocytes (2×10^5/well) were cultured in the microtiter wells coated with anti-CD3 Ab (1 μg/mL; BD PharMingen) in the presence of 1 or 14 (10 μM) at 37° C. in 5% CO2. Prior to harvest on day 3, the cells were pulsed with ^3H-thymidine for 18-24 hours. The incorporation of ^3H-thymidine into the proliferating cells was used as the endpoint of the assay, and the data were expressed as CPM/2×10^5 cells."}, "Aβ42 fibrils": {"biological_target": "T1, Aβ42 fibrils (Homo sapiens, UniProt P05067)", "T1 construct": "The monomers, oligomers and fibrils of Aβ42 were prepared according to established protocols and confirmed by TEM", "T1 sequence (P05067 672-713 limits assumed)": "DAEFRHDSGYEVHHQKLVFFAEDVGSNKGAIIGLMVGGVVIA", "test": "Fluorescence polarization binding to Aβ42 fibrils", "conditions": "compound 1 μM, 3 hrs, read-out: apparent binding constant (Kd) for Aβ42 fibrils", "description": "(§1) FIG. 8A-C. BMAOI 14 binds to Aβ42 monomers, oligomers, and fibrils, but not BSA. A. The monomers, oligomers and fibrils of Aβ42 were prepared according to established protocols and confirmed by TEM; B. Compound 14 (1 μM) was incubated with different forms of Aβ42 at indicated concentrations for 3 hrs. Then, fluorescence polarization change of 14 was recorded and the binding affinity was calculated; C. Compound 14 was incubated with BSA as described in B and the binding affinity was calculated.\n(§2) To determine the binding affinity of 14 to Aβ, we evaluated changes in fluorescence polarization values of this probe at different 14:Aβ ratios for monomeric, oligomeric, and fibrillary Aβ species, respectively. Aβ42 is chosen to evaluate the binding of probe as it is the major and most sticky amyloid peptide found in AD plaques.^1 The formation of different Aβ42 species was confirmed by transmission electron microscope (TEM) as shown in FIG. 8A. […] It appears that 14 binds to Aβ42 with micromolar affinity and slightly favors […] fibrils over monomers and oligomers."}, "Aβ42 oligomers": {"biological_target": "T2, Aβ42 oligomers (Homo sapiens, UniProt P05067)", "T2 construct": "The monomers, oligomers and fibrils of Aβ42 were prepared according to established protocols and confirmed by TEM", "T2 sequence (P05067 672-713 limits assumed)": "as above", "test": "Fluorescence polarization binding to Aβ42 oligomers", "conditions": "compound 1 μM, 3 hrs, read-out: apparent binding constant (Kd) for Aβ42 oligomers", "description": "as §1, §2"}, "MC65 cells": {"system": "MC65 cells", "test": "Cytotoxicity assay in MC65 cells (MTS, +TC/−TC)", "assay_type": "cell-based, human", "conditions": "72 hrs", "from_the_text": "Protective effects of 14 on AβOs-induced cytotoxicity in MC65 cells and differentiated human neuroblastoma SH-SY5Y cells. […] To further verify whether 14 can protect cells from extracellular AβOs-induced cytotoxicity, all trans-retinoic acid differentiated human SH-SY5Y cells were employed. […] This may further indicate that while both 1 and 14 can bind to AβOs, CM/LR anchorage of 14 can increase its accessibility to intracellular target AβOs. Since CM/LR are crucial for many aspects of cell signaling and functions, 14 was further evaluated for its potential cytotoxicity in mouse spleen and natural killer (NK) cells.\nCytotoxicity assay in MC65 cells. MC65 cells were seeded in 96-well plates (4×10^4 cells/well) at 37° C., 5% CO2 for 24 hrs. The medium was removed and washed with PBS twice. Opti-MEM and test compounds were added under +TC and −TC conditions. The plates were incubated at 37° C., 5% CO2 for 72 hrs, then 20 uL CellTiter 96 AQueous One Solution (Promega, Madison, Wis.) were added to each well and the plates were incubated at 37° C., 5% CO2 for 2-4 hrs. The plates were read at 490 nm using FlexStation III plate reader (Molecular Devices). The blank with only test compounds in Opti-MEM was set up as background control for all of the tested concentrations. Each data point was averaged from six replicates and the experiments were independently repeated at least three times."}}, "note": "pKd: −log10 of the molar value."}
{"smiles": "COc1cc(C=CC(=O)C(Cc2cn(CCCCCCNC(=O)CCNC(=O)CCNC(=O)COC3CCC4(C)C(=CCC5C4CCC4(C)C(C(C)CCCC(C)C)CCC54)C3)nn2)C(=O)C=Cc2ccc(O)c(OC)c2)ccc1O", "note": "(stereo not drawn) [BMAOI 14]", "values": [{"measurement": "time window until disappearance from brain tissue", "setting": "[1]; 10 mg/kg i.v.", "result": "~3", "unit": "h"}, {"measurement": "earliest time detected in brain tissue", "setting": "[1]; 10 mg/kg i.v. tail-vein, female B6C3F1 mice", "result": 10, "unit": "min"}, {"measurement": "duration of presence in brain tissue", "setting": "[1]; 10 mg/kg i.v., evident at 60 and 120 minutes", "result": "more than two hours"}, {"measurement": "cytotoxic effects in mouse spleen cells", "setting": "splenocytes", "result": "minimal cytotoxic effects"}, {"measurement": "pKd", "setting": "Aβ42 fibrils", "result": 6.08}, {"measurement": "pKd", "setting": "Aβ42 oligomers", "result": 5.66}, {"measurement": "toxic effects on MC65 cell viability in the presence of TC", "setting": "MC65 cells; +TC, tested concentrations, MTS", "result": "no toxic effects"}, {"measurement": "rescue of MC65 cell viability upon removal of TC", "setting": "MC65 cells; −TC, 16 μM", "result": "nearly full rescue"}, {"measurement": "protective effects on MC65 cell viability upon removal of TC", "setting": "MC65 cells; −TC, MTS", "result": "protected MC65 cell survival in a dose-dependent manner"}]}
